Assay results taken from US20220280603A1, “TARGETING OF THE CYTOSKELETON AS A THERAPEUTIC APPROACH FOR NEURODEGENERATIVE DISEASE” (University of Massachusetts, priority 2019, published 2022).
Entries after “also recorded” stand apart in the source; their conditions may differ.

Columns and labels:
[1] = tested on: primary motor neurons (MNs); assay: Cell death / apoptosis in treated motor neurons; assay type: cell-based, mouse
Description: (§1) Primary motor neurons (MNs) were isolated from E12.5 mouse embryonic spinal cords dissociated in 0.1% trypsin (Worthington) at 37° C. for 12 minutes. MNs were purified using a 6% Optiprep (Sigma-Aldrich) density gradient and plated on glass coverslips coated with 0.5 g/L poly-ornithine (Sigma-Aldrich) and laminin (Thermo Fisher). Cells were grown at 37° C. and 5% CO2 in Neurobasal medium (Thermo Fisher) supplemented with 0.25% Glutamax, 2% B27, 2% horse serum, and 10 ng/ml BDNF, GDNF, and CNTF. MNs at 2 days in vitro (DIV) were transfected using 1.75 μl NeuroMag reagent (OZ Biosciences)+0.5 μg DNA. Complete growth medium was replaced with serum free neurobasal medium 1 hour prior and after transfection. The paramagnetic nanobeads used for transfection can linger inside the cell and in the extracellular space for several days and can be detected as DAPI positive dots. The V5-PFN1 plasmids were described in Wu, C. H. et al. Mutations in the profilin 1 gene cause familial amyotrophic lateral sclerosis. Nature 488, 499-503 (2012). The (G4C2)80 (SEQ ID NO:12). construct was described in Almeida, S. et al. Modeling key pathological features of frontotemporal dementia with C9ORF72 repeat expansion in iPSC-derived human neurons. Acta Neuropathol 126, 385-399 (2013). […]

[2] = tested on: primary motor neurons (MNs); assay: Actin depolymerization assay: immunofluorescence of NCT factors in Latrunculin A treated motor neurons; assay type: cell-based, mouse; settings: 0.1 mg/L Latrunculin A for 3 days
Description: Primary motor neurons (MNs) were isolated from E12.5 mouse embryonic spinal cords dissociated in 0.1% trypsin (Worthington) at 37° C. for 12 minutes. MNs were purified using a 6% Optiprep (Sigma-Aldrich) density gradient and plated on glass coverslips coated with 0.5 g/L poly-ornithine (Sigma-Aldrich) and laminin (Thermo Fisher). Cells were grown at 37° C. and 5% CO2 in Neurobasal medium (Thermo Fisher) supplemented with 0.25% Glutamax, 2% B27, 2% horse serum, and 10 ng/ml BDNF, GDNF, and CNTF. MNs at 2 days in vitro (DIV) were transfected using 1.75 μl NeuroMag reagent (OZ Biosciences)+0.5 μg DNA. Complete growth medium was replaced with serum free neurobasal medium 1 hour prior and after transfection. The paramagnetic nanobeads used for transfection can linger inside the cell and in the extracellular space for several days and can be detected as DAPI positive dots. The V5-PFN1 plasmids were described in Wu, C. H. et al. Mutations in the profilin 1 gene cause familial amyotrophic lateral sclerosis. Nature 488, 499-503 (2012). The (G4C2)80 (SEQ ID NO:12). construct was described in Almeida, S. et al. Modeling key pathological features of frontotemporal dementia with C9ORF72 repeat expansion in iPSC-derived human neurons. Acta Neuropathol 126, 385-399 (2013). For the GFP-PFN1 constructs, WT or mutant PFN1 was PCR amplified from the V5 constructs and cloned in the pEGFP-C1 backbone using BamHI sites. The FH1-FH2 domains of murine formin mDia1 (amino acid residues 553-1192) were PCR amplified using specific primers and cloned into the pEGFP-C1 plasmid using XhoI and BamHI restriction sites. GFP or GFP-mDia1 were co-transfected in a 1:2 ratio with PFN1 or C9ORF72 plasmids. Mock transfection controls were performed by subjecting the cells to all the steps of transfection without adding any plasmid DNA. For actin depolymerization assays, 2 DIV MNs were treated with 0.1 mg/L Latrunculin A (Cayman) for 3 days. For nuclear export inhibition, MNs were treated with 50 nM KPT-276 (Selleck) or equal volume of DMSO (Sigma Aldrich) 1 day after transfection. For formin induction, MNs were treated with 0.1 μM IMM01 (EMD Millipore) for 24 hr before fixation at 6 DIV.
Cells were fixed with 4% paraformaldehyde for 15 minutes. Fixed motor neurons were treated with hot 10 mM citrate buffer, pH 6 for 20 minutes before permeabilization with 0.2% Triton-X 100 for 5 minutes. […]
(§2) Immunofluorescence images were deconvolved using an adaptative blind deconvolution algorithm (Autoquant X3, Media Cybernetics) before analysis. To measure fluorescence intensities, the signals were thresholded and the resulting integrated densities were normalized on the area of the selected region (e.g. cell body, nucleus). […]

[3] = tested on: primary motor neurons (MNs) expressing C71G PFN1; assay: Immunofluorescence of nuclear pore/NCT factors and TDP-43 in motor neurons expressing mutant PFN1; assay type: cell-based, mouse; settings: vs DMSO
Description: as §1, with “(2013). For the GFP-PFN1 constructs, WT or mutant PFN1 was PCR amplified from the V5 constructs and cloned in the pEGFP-C1 backbone using BamHI sites. The FH1-FH2 domains of murine formin mDia1 (amino acid residues 553-1192) were PCR amplified using specific primers and cloned into the pEGFP-C1 plasmid using XhoI and BamHI restriction sites. GFP or GFP-mDia1 were co-transfected in a 1:2 ratio with PFN1 or C9ORF72 plasmids.” for “(2013).”
as §2

[4] = tested on: primary motor neurons (MNs) expressing C71G PFN1; assay: Axon length and outgrowth analysis; assay type: cell-based, mouse
Description: Motor neurons were co-transfected as outlined above with green fluorescent protein (GFP) and V5-tagged PFN1 constructs in a 1:2 ratio. KPT-276 (50 nM) or equal volumes of DMSO were added to the culture medium 1 day after transfection and maintained throughout the experiment for a total of 3 days. Cells were fixed and stained to detect V5-PFN1 expression 4 days after transfection. Cells were imaged as individual focal planes using a 10× lens. GFP was used to identify transfected cells and highlight the whole cell structure. […]
Immunofluorescence images were deconvolved using an adaptative blind deconvolution algorithm (Autoquant X3, Media Cybernetics) before analysis. To measure fluorescence intensities, the signals were thresholded and the resulting integrated densities were normalized on the area of the selected region (e.g. cell body, nucleus). […] For NCT dynamics, the fluorescence intensity of S-mCherry was measured in the nucleus using ImageJ and normalized to the background for every time point. […] For the analysis of axonal fluorescence intensities, a 100 μm long region of the proximal axon was measured in all conditions. Axon lengths were measured using the ImageJ plugin NeuronJ 60. […] The rate of axon outgrowth was measured using the ImageJ plugin MTrackJ by tracking the movement of the growth cone in all fields. […]

[5] = tested on: fibroblasts from ALS patients carrying C9ORF72 repeat expansions; assay: Immunofluorescence of RanGAP1 and FG-Nups in C9ORF72-ALS patient fibroblasts; assay type: cell-based, human; settings: 0.1 μM IMM01 for 24 hours, vs DMSO
Description: Fibroblasts were obtained from skin biopsies of 3 ALS patients carrying mutations in C9ORF72 gene and of 3 healthy donors, sex- and age-matched with ALS cases, after informed consent and approval by the IRCCS Istituto Auxologico Italiano ethics committee. C9ORF72 mutation was validated in primary fibroblasts by repeat-primed PCR and repeat expansion size determined by Southern blot analysis (range 600-1500 units). Fibroblasts were grown in RPMI 1640 medium (EuroClone) containing 2 g/L glucose and supplemented with 10% FBS (Sigma Aldrich), 2 mM L-glutamine, 2.5 μg/ml amphotericin B (Sigma Aldrich), 100 units/ml penicillin and 100 μg/ml streptomycin (Gibco). […]
Immunofluorescence images were deconvolved using an adaptative blind deconvolution algorithm (Autoquant X3, Media Cybernetics) before analysis. To measure fluorescence intensities, the signals were thresholded and the resulting integrated densities were normalized on the area of the selected region (e.g. cell body, nucleus). […] For NCT dynamics, the fluorescence intensity of S-mCherry was measured in the nucleus using ImageJ and normalized to the background for every time point. […] For the analysis of axonal fluorescence intensities, a 100 μm long region of the proximal axon was measured in all conditions. Axon lengths were measured using the ImageJ plugin NeuronJ 60. […]

[6] = tested on: fibroblasts from ALS patients carrying C9ORF72 repeat expansions; assay: FISH for C9ORF72 RNA nuclear foci in patient fibroblasts; assay type: cell-based, human; settings: IMM01 treatment
Description: Fibroblasts were obtained from skin biopsies of 3 ALS patients carrying mutations in C9ORF72 gene and of 3 healthy donors, sex- and age-matched with ALS cases, after informed consent and approval by the IRCCS Istituto Auxologico Italiano ethics committee. C9ORF72 mutation was validated in primary fibroblasts by repeat-primed PCR and repeat expansion size determined by Southern blot analysis (range 600-1500 units). Fibroblasts were grown in RPMI 1640 medium (EuroClone) containing 2 g/L glucose and supplemented with 10% FBS (Sigma Aldrich), 2 mM L-glutamine, 2.5 μg/ml amphotericin B (Sigma Aldrich), 100 units/ml penicillin and 100 μg/ml streptomycin (Gibco). 10,000 cell/well were seeded on glass coverslip in 24-well plates and after 24 hours, 50% of medium was replaced with fresh medium and IMM01 (Sigma Aldrich) at the final concentration of 0.1 μM. After a 24-hour treatment, cells were fixed with 4% paraformaldehyde for 20 minutes, permeabilized with 0.3% Triton X-100/1×PBS for 5 minutes and processed for immunofluorescence as described below.
Motor neurons were fixed in 4% RNase-free paraformaldehyde for 15 minutes and stored in 70% ethanol at 4° C. overnight. […]

[7] = tested on: Neurofilament L mRNA in MNs expressing C71G PFN1; assay: Fluorescence in situ hybridization of Neurofilament L mRNA; assay type: cell-based, mouse; settings: IMM01 vs DMSO
Description: as §1, with “C.” for “C. H. et al. Mutations in the profilin 1 gene cause familial amyotrophic lateral sclerosis. Nature 488, 499-503 (2012). The (G4C2)80 (SEQ ID NO:12). construct was described in Almeida, S. et al. Modeling key pathological features of frontotemporal dementia with C9ORF72 repeat expansion in iPSC-derived human neurons. Acta Neuropathol 126, 385-399 (2013).”
Immunofluorescence images were deconvolved using an adaptative blind deconvolution algorithm (Autoquant X3, Media Cybernetics) before analysis. To measure fluorescence intensities, the signals were thresholded and the resulting integrated densities were normalized on the area of the selected region (e.g. cell body, nucleus). […] For NCT dynamics, the fluorescence intensity of S-mCherry was measured in the nucleus using ImageJ and normalized to the background for every time point. […]

## C/C1=C/C(=O)O[C@@H]2C[C@@H](CC[C@H](C)/C=C\C=C\CC1)O[C@@](O)([C@@H]1CSC(=O)N1)C2 [Latrunculin A]
[1]; MNs, Latrunculin A treatment conditions (0.1 mg/L, 3 days), data not shown
  cell death or apoptosis: No increased cell death or apoptosis was observed
[2]
  localization of FG-Nups: severe mislocalization
  localization of Ran: severe mislocalization; also recorded: disrupted
  localization of RanGAP1: severe mislocalization; also recorded: disrupted
  nuclear morphology: smaller nuclei with condensed DNA

## O=C(/C=C\n1cnc(-c2cc(C(F)(F)F)cc(C(F)(F)F)c2)n1)N1CC(F)(F)C1 [KPT-276]
[3]; 50 nM KPT-276 6 hours prior to fixation
  C:N ratio of TDP-43 (TDP-43 cytoplasmic mislocalization): fully rescue TDP-43 cytoplasmic mislocalization; also recorded: rescues C:N ratio of TDP-43
[4]; 50 nM KPT-276 for 3 days, vs DMSO
  axon length: fully rescued the defect
[4]; 50 nM KPT-276 ~18-24 hours, imaged over 1 hour
  rate of axon growth (outgrowth) by live cell imaging: full rescue of the outgrowth defects

## CC(C)(C)NC(=S)N/N=C/c1ccc(O)cc1O [IMM01]
[5]
  localization of FG-Nups: rescued defects in the localization; also recorded: significantly rescued the defects
  localization of RanGAP1: rescued defects in the localization; also recorded: significantly rescued the defects
[6]
  propensity of the cell to form C9ORF72-positive nuclear foci: without changes to the propensity of the cell to form C9ORF72-positive nuclear foci
[3]; 0.1 μM IMM01 for 24 hours
  FG-Nups localization at the nuclear envelope: rescue of FG-Nups defective localization at the nuclear envelope; also recorded: rescue of mislocalization
  Ran gradient (Ran localization): rescue of mislocalization
[1]; primary MNs, 0.1 μM IMM01 for 24 hours
  induction of apoptosis: No induction of apoptosis was detected
[7]
  axonal localization of Nef1 mRNA: rescue the defects in the axonal localization; also recorded: rescue of mislocalization
